36 compounds from patent US7388017B2, “Inhibitors of serine proteases, particularly hepatitis C virus NS3 protease” (Vertex Pharmaceuticals Incorporated, priority 1996, dated 2008) can be followed below.

The structures appear in SMILES notation. Starred links: 1 amine or outer side, 2 acyl side, 3 side chain; linkers in the order of their positions; H or OH if unused. Non-standard residues stand in square brackets, D forms with d. Residues, ends and D or L forms follow the SMILES beside them. ξ: configuration not given here. *: point of attachment. ξ(3-Amino-2-oxopentanoyl) = CCC(N[*:1])C(=O)C(=O)[*:2]; Acetyl(3-pyridyl) = O=C(Cc1cccnc1)*; NH(4-picolyl) = c1cc(CN*)ccn1; Hyp = O=C(O)[CH]1C[CH](O)CN1; NHPhenethyl = c1ccc(CCN*)cc1; Nicotinoyl = O=C(c1cccnc1)*; X44 = O=C(c1ccc2cnccc2n1)*; Morpholide = C1CN(*)CCO1; Abu = CC[CH](N)C(=O)O; X8 = O=C(CCN1CCCCC1)*; NHBn = c1ccc(CN*)cc1; Glycolyl = O=C(CO)*; X13 = COc1ccccc1CN*; X16 = C1COC(CN*)C1; Bn = c1ccc(C*)cc1; X37 = COCC(C)N*; NHPr = CCCN* Some results are limits rather than exact numbers.

T1 sequence (P27958 1027-1208): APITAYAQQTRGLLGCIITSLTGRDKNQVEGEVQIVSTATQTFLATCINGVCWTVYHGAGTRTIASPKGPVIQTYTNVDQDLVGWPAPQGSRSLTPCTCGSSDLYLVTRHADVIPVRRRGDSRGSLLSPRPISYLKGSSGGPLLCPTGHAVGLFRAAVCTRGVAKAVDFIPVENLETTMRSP

One test concerns the target T1, HCV NS3 protease (Hepatitis C virus genotype 1a, UniProt P27958).
T1 construct: more particularly HCV NS3 proteases
The experiment in a line: Enzyme inhibition of HCV NS3 serine protease (cleavage of peptide substrate / EDVV AbuC-p-nitroanilide, with or without NS4A). The test is classed as biochemical.
Conditions: not given
As for the experimental part:
Cleavage reactions were quenched by the addition of an equal volume of a mixture of 10% TFA:acetonitrile (1:1) and activity was assessed on a reversed phase HPLC column (Rainin C18 Microsorb-MV, […], 4.6×250 mm; 0-50% acetonitrile, 0.1% TFA@ 3.33% min) using a Hewlett Packard 1050 instrument with auto-injection and diode array detection at 210 nm and 280 nm (where appropriate). Peptide elution fragments were collected and identified by mass spectrometry and N-terminal sequence analysis. Fragment identity and concentration was further verified by authentic, synthesized products. Initial rates of cleavage were determined at <20% substrate conversion and catalytic parameters were determined assuming Michaelis-Menten kinetics using the MultiFit program (Day Computing, Cambridge, Mass.).
Spectrophotometric assays were run in a 96-well microtiter plate at 30 C, using a SpectraMax 250 reader (Molecular Devices, Sunnyvale, Calif.) with kinetic capability. Cleavage of EDVV AbuC-p-nitroanilide (5A-pNA) substrate was performed with or without […] in the same buffer used for HPLC assays at 30 C, and pNA release was monitored at 405 nm. The extinction-coefficient of p-nitroaniline is independent of pH at values of 5.5. and above [Tuppy, H., et al., Hoppe-Seyler's Z. Physiol. Chem., 329, pp. 278-288 (1962)]; Raybuck and Luong, unpublished observations).
Kinetic constants for the rapid equilibrium ordered bisubstrate reaction were determined from rate vs [4A], [EDVV AbuC-pNA] data by non-linear least squares fitting to equation 1 [Morrison, J. F. Biochim. Biophys. Acta, 185, pp. 269-286 (1969)] as described in the text. Kii and Kis values for peptidyl inhibitors were determined from rate vs [inhibitor], [substrate] data and fitting to the equation for mixed inhibition: rate=Vmax[S]/{Km(1+[I]/Kis)+[S](1+[I]/Kii)} The commercial program KinetAsyst (StateCollege, Pa.) was used for both procedures. Ki values were calculated from rate vs [inhibitor] plots by a nonlinear least squares fit of the data to the equation of Morrison for tight binding competitive inhibition [Morrison, J. F. Biochim. Biophys. Acta, 185, pp. 269-286 (1969)]. The KineTic program (BioKin Ltd) was used for this procedure.
Ki values are expressed in μM. Category “A” indicates <1 μM inhibition; category “B” indicates 1-100 μM inhibition; category “C” indicates >100 μM.
The compound `CCC(NC(=O)C1CC(OCc2ccc(Cl)c(Cl)c2)CN1C(=O)C(NC(=O)C(NC(=O)c1cnccn1)C(C)C)C(C)C)P(=O)(Oc1ccccc1)Oc1ccccc1` (stereo not drawn) [Compound 71] gave an inhibitory constant (Ki) of less than 1000 nM.

Compound `CCC(NC(=O)C1CC(OCc2ccc3ccccc3c2)CN1C(=O)C(NC(=O)C(NC(=O)c1cnccn1)C(C)C)C(C)C)P(=O)(Oc1ccccc1)Oc1ccccc1` (stereo not drawn) [Compound 72] came in with a Ki of 1000 to 100000 nM. In the case of `CCC(NC(=O)C1CC(OCc2ccccc2)CN1C(=O)C(NC(=O)C(NC(=O)c1cnccn1)C(C)C)C(C)C)P(=O)(Oc1ccccc1)Oc1ccccc1` (stereo not drawn) [Compound 73], the Ki was in the range of 1000 to 100000 nM.

The same test, now with this note: Enzyme inhibition data; Ki from rate vs [inhibitor] plots, Morrison tight binding competitive inhibition fit; 30 C, pH 7.8; read-out: Ki.
For `C=CCOC(=O)NC1CC(C(=O)NC(C=O)CC)N(C(=O)C(NC(=O)C(NC(=O)c2cnccn2)C(C)C)C(C)C)C1` (stereo not drawn) [Compound 61], the Ki is greater than 100000 nM. Turning to `CCC(C=O)NC(=O)C1CC(NC(=O)c2ccccc2)CN1C(=O)C(NC(=O)C(NC(=O)c1cnccn1)C(C)C)C(C)C` (stereo not drawn) [Compound 62], the Ki was 1000 to 100000 nM. Consider `CCC(C=O)NC(=O)C1CC(NC(=O)CCc2ccccc2)CN1C(=O)C(NC(=O)C(NC(=O)c1cnccn1)C(C)C)C(C)C` (stereo not drawn) [Compound 63], for which the Ki was in the range of 1000 to 100000 nM. Consider `CCC(C=O)NC(=O)C1CC(NC(=O)C(=O)c2ccccc2)CN1C(=O)C(NC(=O)C(NC(=O)c1cnccn1)C(C)C)C(C)C` (stereo not drawn) [Compound 64], for which the Ki lay in the range of 1000 to 100000 nM.

As to `CCC(C=O)NC(=O)C1CC(NS(=O)(=O)Cc2ccccc2)CN1C(=O)C(NC(=O)C(NC(=O)c1cnccn1)C(C)C)C(C)C` (stereo not drawn) [Compound 65], the Ki fell in the range of 1000 to 100000 nM. For `CCC(C=O)NC(=O)C1CC(NCc2ccccc2)CN1C(=O)C(NC(=O)C(NC(=O)c1cnccn1)C(C)C)C(C)C` (stereo not drawn) [Compound 67], the Ki is greater than 100000 nM. As to `CCC(NC(=O)C1CC(OCc2ccccc2)CN1C(=O)C(NC(=O)C(NC(=O)c1cnccn1)C(C)C)C(C)C)C(=O)C(F)(F)C(F)(F)F` (stereo not drawn) [Compound 75], the Ki is 1000 to 100000 nM. For `CCOC(=O)C(F)(F)C(=O)C(CC)NC(=O)C1CC(OCc2ccccc2)CN1C(=O)C(NC(=O)C(NC(=O)c1cnccn1)C(C)C)C(C)C` (stereo not drawn) [Compound 76], the Ki is greater than 100000 nM. Consider `CCOP(=O)(OCC)C(CC)NC(=O)C1CC(OCc2ccccc2)CN1C(=O)C(NC(=O)C(NC(=O)c1cnccn1)C(C)C)C(C)C` (stereo not drawn) [Compound 77], for which the Ki was greater than 100000 nM. As to `CCC(NC(=O)C1CC(OCc2ccccc2)CN1C(=O)C(NC(=O)C(NC(=O)c1cnccn1)C(C)C)C(C)C)C(=O)C(=O)CCc1ccccc1` (stereo not drawn) [Compound 78], the Ki is 1000 to 100000 nM. `CCC(NC(=O)C1CC(OCc2ccccc2)CN1C(=O)C(NC(=O)C(NC(=O)c1cnccn1)C(C)C)C(C)C)C(=O)C(=O)NCCc1ccccc1` (stereo not drawn) [Compound 79]: the Ki fell in the range of 1000 to 100000 nM. The same measure, in the same setting: then `CCC(C=O)NC(=O)C1CC(OCc2ccccc2)CN1C(=O)C(NC(=O)C(NC(C)=O)C(C)C)C(C)C` (stereo not drawn) [Compound 81] (Ac-VV[Hyp](Bn)[Abu]-aldehyde; configuration not given here), with 1000 to 100000 nM. For the compound `CCC(C=O)NC(=O)C1CC(OCc2ccccc2)CN1C(=O)C(NC(=O)C(NC(=O)CO)C(C)C)C(C)C` (stereo not drawn) [Compound 82] (Glycolyl-VV[Hyp](Bn)[Abu]-aldehyde; configuration not given here), the Ki lay within 1000 to 100000 nM.

`CCC(C=O)NC(=O)C(CC(C)C)NC(=O)C(NC(=O)C(NC(=O)c1ccc2cnccc2n1)C(C)C)C(C)C` (stereo not drawn) [Compound 89] (X44-VVL[Abu]-aldehyde; configuration not given here): the Ki lay in the range of 1000 to 100000 nM. With `CCC(C=O)NC(=O)C(CC(C)C)NC(=O)C(NC(=O)C(NC(=O)c1cccnc1)C(C)C)C(C)C` (stereo not drawn) [Compound 94] (Nicotinoyl-VVL[Abu]-aldehyde; configuration not given here), the Ki was 1000 to 100000 nM. For `CCC(C=O)NC(=O)C(CC(C)C)NC(=O)C(NC(=O)C(NC(=O)Cc1cccnc1)C(C)C)C(C)C` (stereo not drawn) [Compound 95] ({Acetyl(3-pyridyl)}-VVL[Abu]-aldehyde; configuration not given here), the Ki lay within 1000 to 100000 nM. On the same count and under the same terms, next, `CCC(C=O)NC(=O)C(CC(C)C)NC(=O)C(NC(=O)C(NC(=O)CCN1CCCCC1)C(C)C)C(C)C` (stereo not drawn) [Compound 97] (X8-VVL[Abu]-aldehyde; configuration not given here): 1000 to 100000 nM; `CCC(NC(=O)C(CC(C)C)NC(=O)C(NC(=O)C(NC(=O)C(CC(=O)O)NC(=O)C(CCC(=O)O)NC(C)=O)C(C)C)C(C)C)C(=O)C(=O)O` (stereo not drawn) [Compound 101] (Ac-EDVVL-{ξ(3-Amino-2-oxopentanoyl)}; configuration not given here): less than 1000 nM; `CCC(NC(=O)C(CC(C)C)NC(=O)C(NC(=O)C(NC(=O)C(CC(=O)O)NC(=O)C(CCC(=O)O)NC(C)=O)C(C)C)C(C)C)C(=O)C(=O)NCc1ccccc1` (stereo not drawn) [Compound 102] (Ac-EDVVL[ξ(3-Amino-2-oxopentanoyl)]-NHBn; configuration not given here): less than 1000 nM. As for `CCC(NC(=O)C(CC(C)C)NC(=O)C(NC(=O)C(NC(=O)C(CC(=O)O)NC(=O)C(CCC(=O)O)NC(C)=O)C(C)C)C(C)C)C(=O)C(=O)NCc1ccccc1OC` (stereo not drawn) [Compound 103] (Ac-EDVVL[ξ(3-Amino-2-oxopentanoyl)]-X13; configuration not given here), the Ki was less than 1000 nM. On the same count and under the same terms, next, `CCC(NC(=O)C(CC(C)C)NC(=O)C(NC(=O)C(NC(=O)C(CC(=O)O)NC(=O)C(CCC(=O)O)NC(C)=O)C(C)C)C(C)C)C(=O)C(=O)NCCc1ccccc1` (stereo not drawn) [Compound 104] (Ac-EDVVL[ξ(3-Amino-2-oxopentanoyl)]-NHPhenethyl; configuration not given here): less than 1000 nM; `CCCNC(=O)C(=O)C(CC)NC(=O)C(CC(C)C)NC(=O)C(NC(=O)C(NC(=O)C(CC(=O)O)NC(=O)C(CCC(=O)O)NC(C)=O)C(C)C)C(C)C` (stereo not drawn) [Compound 105] (Ac-EDVVL[ξ(3-Amino-2-oxopentanoyl)]-NHPr; configuration not given here): less than 1000 nM; `CCC(NC(=O)C(CC(C)C)NC(=O)C(NC(=O)C(NC(=O)C(CC(=O)O)NC(=O)C(CCC(=O)O)NC(C)=O)C(C)C)C(C)C)C(=O)C(=O)NC(C)COC` (stereo not drawn) [Compound 106] (Ac-EDVVL[ξ(3-Amino-2-oxopentanoyl)]-X37; configuration not given here): less than 1000 nM. For the compound `CCC(NC(=O)C(CC(C)C)NC(=O)C(NC(=O)C(NC(=O)C(CC(=O)O)NC(=O)C(CCC(=O)O)NC(C)=O)C(C)C)C(C)C)C(=O)C(=O)NCc1ccncc1` (stereo not drawn) [Compound 107] (Ac-EDVVL[ξ(3-Amino-2-oxopentanoyl)]-{NH(4-picolyl)}; configuration not given here), the Ki is less than 1000 nM. Still for that read-out and setting: then `CCC(NC(=O)C(CC(C)C)NC(=O)C(NC(=O)C(NC(=O)C(CC(=O)O)NC(=O)C(CCC(=O)O)NC(C)=O)C(C)C)C(C)C)C(=O)C(=O)NCC1CCCO1` (stereo not drawn) [Compound 108] (Ac-EDVVL[ξ(3-Amino-2-oxopentanoyl)]-X16; configuration not given here), with less than 1000 nM.

As to `CCC(NC(=O)C(CC(C)C)NC(=O)C(NC(=O)C(NC(=O)C(CC(=O)O)NC(=O)C(CCC(=O)O)NC(C)=O)C(C)C)C(C)C)C(=O)C(=O)N1CCOCC1` (stereo not drawn) [Compound 109] (Ac-EDVVL[ξ(3-Amino-2-oxopentanoyl)]-Morpholide; configuration not given here), the Ki lay in the range of 1000 to 100000 nM. For `CCC(NC(=O)C(CC(C)C)NC(=O)C(NC(=O)C(NC(=O)c1cnccn1)C(C)C)C(C)C)C(=O)C(=O)NCc1ccccc1` (stereo not drawn) [Compound 112], the Ki fell in the range of 1000 to 100000 nM. Still for that read-out and setting: next, `CCC(NC(=O)C(CC(C)C)NC(=O)C(NC(=O)C(NC(=O)c1cnccn1)C(C)C)C(C)C)C(=O)C(=O)NCCc1ccc(OCc2ccccc2)c(OCc2ccccc2)c1` (stereo not drawn) [Compound 113]: 1000 to 100000 nM; `CCC(NC(=O)C(CC(C)C)NC(=O)C(NC(=O)C(NC(=O)c1cnccn1)C(C)C)C(C)C)C(=O)C(=O)NCc1ccccc1OC` (stereo not drawn) [Compound 114]: greater than 100000 nM; `CCC(NC(=O)C(CC(C)C)NC(=O)C(NC(=O)C(NC(=O)c1cnccn1)C(C)C)C(C)C)C(=O)C(=O)NCCc1ccccc1` (stereo not drawn) [Compound 115]: 1000 to 100000 nM. With `CCC(NC(=O)C(CC(C)C)NC(=O)C(NC(=O)C(NC(=O)c1cnccn1)C(C)C)C(C)C)C(=O)C(=O)N[C@H](C)c1ccccc1` (stereo partly drawn) [Compound 116], the Ki was 1000 to 100000 nM. With `CCC(NC(=O)C(CC(C)C)NC(=O)C(NC(=O)C(NC(=O)c1cnccn1)C(C)C)C(C)C)C(=O)C(=O)N[C@@H](C)c1ccccc1` (stereo partly drawn) [Compound 117], the Ki lay within 1000 to 100000 nM. For `CCC(NC(=O)C(CC(C)C)NC(=O)C(NC(=O)C(NC(=O)c1cnccn1)C(C)C)C(C)C)C(=O)C(=O)Nc1ccccc1` (stereo not drawn) [Compound 119], the Ki is greater than 100000 nM.
